# Target: Mitogen-activated protein kinase 1 (Homo sapiens, UniProt P28482)
# Experiment: Photometric_Method2
# Chain of Mitogen-activated protein kinase 1 (P28482 whole entry): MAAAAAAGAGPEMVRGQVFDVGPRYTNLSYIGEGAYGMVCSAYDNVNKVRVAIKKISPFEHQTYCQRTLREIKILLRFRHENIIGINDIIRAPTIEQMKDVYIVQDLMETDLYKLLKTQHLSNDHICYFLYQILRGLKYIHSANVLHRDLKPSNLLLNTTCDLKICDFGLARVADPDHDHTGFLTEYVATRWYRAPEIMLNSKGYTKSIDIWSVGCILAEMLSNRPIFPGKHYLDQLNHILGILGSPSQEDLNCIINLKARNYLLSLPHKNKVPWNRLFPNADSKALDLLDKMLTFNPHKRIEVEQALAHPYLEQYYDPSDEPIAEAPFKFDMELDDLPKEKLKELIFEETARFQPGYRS
row,Compound,Ki
1,Cc1cnc(NC2CCOCC2)nc1-c1c[nH]c(C(=O)N[C@H](CO)c2cccc(Cl)c2)c1 [erk000584],7.9 nM
2,Cc1cnc(N[C@@H](CO)CC(F)(F)F)nc1-c1c[nH]c(C(=O)N[C@H](CO)c2cccc(Cl)c2)c1 [erk000675],7.9 nM
3,Cc1cnc(Nc2ccc(Cl)cc2Cl)nc1-c1c[nH]c(C(=O)N[C@H](CO)c2ccccc2)c1 [erk000657],7.9 nM
4,Cc1cnc(NCCc2ccccc2)nc1-c1c[nH]c(C(=O)N[C@H](CO)c2ccccc2)c1 [erk000578],7.1 nM
5,Cc1ccc(Nc2ncc(C)c(-c3c[nH]c(C(=O)N[C@H](CO)c4cccc(Cl)c4)c3)n2)cc1 [erk000585],7.1 nM
6,Cc1cnc(Nc2cccc3c2OC(F)(F)O3)nc1-c1c[nH]c(C(=O)N[C@H](CO)c2ccccc2)c1 [erk000591],7.9 nM
7,Cc1cccc([C@@H](CO)NC(=O)c2cc(-c3nc(Nc4cccc(F)c4C)ncc3C)c[nH]2)c1 [erk000601],7.9 nM
8,Cc1cnc(N[C@H]2CCC[C@H]2O)nc1-c1c[nH]c(C(=O)N[C@H](CO)c2cccc(Cl)c2)c1 [erk000612],7.1 nM

# More lines, in order of falling Ki, values ahead:
row,Ki,Compound
1,7.1 nM,CCOC(=O)N1CCC(Nc2ncc(Cl)c(-c3c[nH]c(C(=O)N[C@H](CO)c4cccc(Cl)c4)c3)n2)CC1 [erk000703]
2,7.1 nM,Cc1cnc(NN2CCCC2)nc1-c1c[nH]c(C(=O)N[C@H](CO)c2cccc(Cl)c2)c1 [erk000624]
3,7.1 nM,Cc1cnc(N[C@H]2CCCC[C@H]2O)nc1-c1c[nH]c(C(=O)N[C@H](CO)c2ccccc2)c1 [erk000465]
4,7.1 nM,Cc1cnc(NN(C)C)nc1-c1c[nH]c(C(=O)N[C@H](CO)c2ccccc2)c1 [erk000505]

# Source: BindingDB's records for doi:10.7270/Q2S46QSD (D3R/Abbott, 2015)
